From US12275731B2, “Azaindole inhibitors of wild-type and mutant forms of LRRK2” (DANA-FARBER CANCER INSTITUTE, INC., priority 2018, dated 2025)

How the values were obtained:
Assay in all cases: KinomeScan profiling
Type in all cases: binding
[1] = molecular target: T1, ABL1(E255K)-phosphorylated (Homo sapiens, UniProt P00519, E255K); details: read-out: % control
T1 construct: purchased KinomeScan®
In short: (§1)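 The panel spans 468 kinases, and each inventive compound was applied at 1 μM from DMSO. Lower % control means stronger binding; the activity cut-off is set at less than 35%.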

[2] = molecular target: T2, ABL1(H396P)-nonphosphorylated (Homo sapiens, UniProt P00519, H396P); details: read-out: % control
T2 construct: purchased KinomeScan®
In short: as §1

CDC2L5 = CDC2L5 (Homo sapiens, UniProt Q14004); details: CDC2L5, 1 μM; read-out: % control
In short: as §1

CSNK1E = CSNK1E (Homo sapiens, UniProt P49674); details: read-out: % control
CSNK1E, sequence (P49674 whole entry): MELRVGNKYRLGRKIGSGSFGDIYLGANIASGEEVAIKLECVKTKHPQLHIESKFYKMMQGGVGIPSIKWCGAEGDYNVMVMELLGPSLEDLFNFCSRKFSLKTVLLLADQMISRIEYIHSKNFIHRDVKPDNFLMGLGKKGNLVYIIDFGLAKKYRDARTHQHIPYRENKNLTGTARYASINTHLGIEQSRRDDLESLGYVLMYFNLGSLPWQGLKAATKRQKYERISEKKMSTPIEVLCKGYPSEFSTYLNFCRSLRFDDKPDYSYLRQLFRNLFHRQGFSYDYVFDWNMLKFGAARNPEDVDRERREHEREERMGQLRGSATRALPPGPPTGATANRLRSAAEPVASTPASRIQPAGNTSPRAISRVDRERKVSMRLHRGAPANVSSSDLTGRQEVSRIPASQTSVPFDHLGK
In short: as §1

DCAMKL1 = molecular target: T3, DCAMKL1 (Homo sapiens, UniProt O15075); details: DCAMKL1, 1 μM; read-out: % control
T3 sequence (O15075 1-740): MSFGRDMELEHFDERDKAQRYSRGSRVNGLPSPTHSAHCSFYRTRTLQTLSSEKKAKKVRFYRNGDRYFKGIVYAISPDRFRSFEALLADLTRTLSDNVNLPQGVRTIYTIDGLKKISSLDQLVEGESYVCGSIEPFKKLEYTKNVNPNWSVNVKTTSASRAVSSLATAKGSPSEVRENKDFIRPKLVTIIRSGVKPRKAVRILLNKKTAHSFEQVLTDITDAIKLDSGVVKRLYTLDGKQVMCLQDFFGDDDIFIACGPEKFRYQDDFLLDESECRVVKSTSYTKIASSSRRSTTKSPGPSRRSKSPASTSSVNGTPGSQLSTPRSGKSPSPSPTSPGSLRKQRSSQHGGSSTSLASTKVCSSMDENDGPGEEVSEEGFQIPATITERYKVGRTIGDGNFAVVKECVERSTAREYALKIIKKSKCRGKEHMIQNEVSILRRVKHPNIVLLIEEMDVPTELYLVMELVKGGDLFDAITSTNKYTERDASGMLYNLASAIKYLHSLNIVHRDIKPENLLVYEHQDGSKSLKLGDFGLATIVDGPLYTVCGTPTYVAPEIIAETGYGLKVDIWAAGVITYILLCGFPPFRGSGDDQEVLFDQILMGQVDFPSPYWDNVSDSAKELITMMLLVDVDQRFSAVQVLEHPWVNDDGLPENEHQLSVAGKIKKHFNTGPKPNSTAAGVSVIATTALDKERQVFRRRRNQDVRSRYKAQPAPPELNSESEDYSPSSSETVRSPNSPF
In short: as §1

EGFR(L861Q) = EGFR(L861Q) (Homo sapiens, UniProt P00533, L861Q); details: read-out: % control
EGFR(L861Q), sequence (P00533 25-1210 L861Q): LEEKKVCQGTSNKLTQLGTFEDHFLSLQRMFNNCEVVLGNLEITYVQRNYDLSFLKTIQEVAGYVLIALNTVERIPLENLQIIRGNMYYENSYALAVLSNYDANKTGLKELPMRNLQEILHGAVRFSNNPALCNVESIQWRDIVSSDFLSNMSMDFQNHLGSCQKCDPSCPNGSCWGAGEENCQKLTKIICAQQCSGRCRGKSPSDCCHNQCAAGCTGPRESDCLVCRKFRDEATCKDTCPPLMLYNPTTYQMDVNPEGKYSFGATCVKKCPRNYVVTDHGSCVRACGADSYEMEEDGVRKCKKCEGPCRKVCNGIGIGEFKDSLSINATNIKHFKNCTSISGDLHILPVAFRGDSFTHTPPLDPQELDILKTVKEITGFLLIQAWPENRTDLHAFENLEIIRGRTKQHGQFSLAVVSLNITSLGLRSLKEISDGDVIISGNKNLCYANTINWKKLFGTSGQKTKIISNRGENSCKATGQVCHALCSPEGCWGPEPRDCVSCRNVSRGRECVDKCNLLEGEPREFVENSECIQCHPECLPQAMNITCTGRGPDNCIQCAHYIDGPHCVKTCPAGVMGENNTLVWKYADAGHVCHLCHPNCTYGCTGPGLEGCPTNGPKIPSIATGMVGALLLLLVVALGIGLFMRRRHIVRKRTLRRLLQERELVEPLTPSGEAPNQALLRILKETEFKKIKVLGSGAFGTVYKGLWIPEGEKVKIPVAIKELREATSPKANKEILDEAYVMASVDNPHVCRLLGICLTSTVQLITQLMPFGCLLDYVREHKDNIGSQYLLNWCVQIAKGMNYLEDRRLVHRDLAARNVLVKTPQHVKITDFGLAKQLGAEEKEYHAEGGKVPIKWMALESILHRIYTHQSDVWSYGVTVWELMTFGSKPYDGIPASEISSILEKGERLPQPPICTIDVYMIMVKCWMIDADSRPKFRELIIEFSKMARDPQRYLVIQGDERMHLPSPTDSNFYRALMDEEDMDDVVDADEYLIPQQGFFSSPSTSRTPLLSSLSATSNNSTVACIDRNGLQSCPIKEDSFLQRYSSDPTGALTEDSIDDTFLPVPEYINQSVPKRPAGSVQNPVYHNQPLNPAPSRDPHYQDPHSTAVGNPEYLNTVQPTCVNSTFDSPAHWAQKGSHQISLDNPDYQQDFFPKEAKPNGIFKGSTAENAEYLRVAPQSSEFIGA
In short: as §1

FLT3 = molecular target: T4, FLT3 (Homo sapiens, UniProt P36888); details: FLT3, 1 μM; read-out: % control
T4 sequence (P36888 27-993): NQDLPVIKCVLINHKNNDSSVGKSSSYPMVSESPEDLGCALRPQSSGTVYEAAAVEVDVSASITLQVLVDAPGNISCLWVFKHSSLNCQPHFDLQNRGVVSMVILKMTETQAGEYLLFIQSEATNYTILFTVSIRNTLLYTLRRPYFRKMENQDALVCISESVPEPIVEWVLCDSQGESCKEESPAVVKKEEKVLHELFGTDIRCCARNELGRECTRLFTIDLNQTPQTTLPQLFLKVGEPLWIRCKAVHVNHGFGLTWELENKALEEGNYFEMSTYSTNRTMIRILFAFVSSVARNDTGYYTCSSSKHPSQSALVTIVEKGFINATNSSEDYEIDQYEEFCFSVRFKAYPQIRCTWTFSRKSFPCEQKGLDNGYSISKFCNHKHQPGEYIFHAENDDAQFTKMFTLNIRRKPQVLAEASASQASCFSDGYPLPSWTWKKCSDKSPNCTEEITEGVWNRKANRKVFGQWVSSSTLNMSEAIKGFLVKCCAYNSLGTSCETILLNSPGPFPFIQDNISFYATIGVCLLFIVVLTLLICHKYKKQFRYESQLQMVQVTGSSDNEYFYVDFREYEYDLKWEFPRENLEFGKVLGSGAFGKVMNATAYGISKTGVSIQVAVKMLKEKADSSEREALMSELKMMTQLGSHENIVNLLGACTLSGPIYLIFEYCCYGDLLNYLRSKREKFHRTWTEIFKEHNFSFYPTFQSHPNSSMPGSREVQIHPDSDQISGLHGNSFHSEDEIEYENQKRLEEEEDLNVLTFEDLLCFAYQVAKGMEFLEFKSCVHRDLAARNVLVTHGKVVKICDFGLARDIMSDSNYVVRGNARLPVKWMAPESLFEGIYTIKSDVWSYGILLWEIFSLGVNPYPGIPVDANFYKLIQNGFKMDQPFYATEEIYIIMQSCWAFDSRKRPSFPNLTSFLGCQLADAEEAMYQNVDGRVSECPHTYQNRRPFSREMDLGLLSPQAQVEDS
In short: as §1

JNK2 = molecular target: T5, JNK2 (Homo sapiens, UniProt P45984); details: JNK2, 1 μM; read-out: % control
T5 construct: purchased KinomeScan®
In short: as §1

MARK3 = MARK3 (Homo sapiens, UniProt P27448); details: MARK3, 1 μM; read-out: % control
In short: as §1

NIM1 = NIM1 (Homo sapiens, UniProt Q8IY84); details: NIM1, 1 μM; read-out: % control
In short: as §1

PKN2 = PKN2 (Homo sapiens, UniProt Q16513); details: PKN2, 1 μM; read-out: % control
PKN2, sequence (Q16513 whole entry): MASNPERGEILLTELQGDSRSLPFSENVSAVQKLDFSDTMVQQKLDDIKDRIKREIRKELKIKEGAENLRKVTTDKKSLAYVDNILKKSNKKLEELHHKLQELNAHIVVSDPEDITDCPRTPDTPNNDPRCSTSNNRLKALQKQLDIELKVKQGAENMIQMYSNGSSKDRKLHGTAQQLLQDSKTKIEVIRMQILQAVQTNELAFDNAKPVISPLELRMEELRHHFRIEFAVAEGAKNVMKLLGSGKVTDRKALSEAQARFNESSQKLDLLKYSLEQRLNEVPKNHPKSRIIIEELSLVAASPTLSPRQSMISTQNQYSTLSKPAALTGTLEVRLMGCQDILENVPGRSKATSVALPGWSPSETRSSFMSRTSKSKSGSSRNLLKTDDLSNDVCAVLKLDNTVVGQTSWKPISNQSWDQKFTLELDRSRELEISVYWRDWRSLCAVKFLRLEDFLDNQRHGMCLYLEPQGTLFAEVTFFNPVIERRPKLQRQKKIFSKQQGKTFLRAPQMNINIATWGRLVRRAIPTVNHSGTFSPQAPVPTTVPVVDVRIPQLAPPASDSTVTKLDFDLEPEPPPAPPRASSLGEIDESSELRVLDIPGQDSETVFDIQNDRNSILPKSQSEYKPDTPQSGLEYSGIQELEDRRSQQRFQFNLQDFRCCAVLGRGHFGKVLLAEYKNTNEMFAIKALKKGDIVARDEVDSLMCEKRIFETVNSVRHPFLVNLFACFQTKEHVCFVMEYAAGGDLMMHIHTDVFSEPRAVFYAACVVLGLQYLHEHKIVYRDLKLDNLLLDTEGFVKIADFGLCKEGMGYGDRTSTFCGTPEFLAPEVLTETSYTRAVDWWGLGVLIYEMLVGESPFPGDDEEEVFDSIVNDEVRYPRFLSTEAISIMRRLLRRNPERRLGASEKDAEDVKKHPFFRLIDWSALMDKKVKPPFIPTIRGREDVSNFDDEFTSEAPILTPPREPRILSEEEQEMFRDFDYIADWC
In short: as §1

TIE2 = TIE2 (Homo sapiens, UniProt Q02763); details: TIE2, 1 μM; read-out: % control
TIE2, sequence (Q02763 23-1124): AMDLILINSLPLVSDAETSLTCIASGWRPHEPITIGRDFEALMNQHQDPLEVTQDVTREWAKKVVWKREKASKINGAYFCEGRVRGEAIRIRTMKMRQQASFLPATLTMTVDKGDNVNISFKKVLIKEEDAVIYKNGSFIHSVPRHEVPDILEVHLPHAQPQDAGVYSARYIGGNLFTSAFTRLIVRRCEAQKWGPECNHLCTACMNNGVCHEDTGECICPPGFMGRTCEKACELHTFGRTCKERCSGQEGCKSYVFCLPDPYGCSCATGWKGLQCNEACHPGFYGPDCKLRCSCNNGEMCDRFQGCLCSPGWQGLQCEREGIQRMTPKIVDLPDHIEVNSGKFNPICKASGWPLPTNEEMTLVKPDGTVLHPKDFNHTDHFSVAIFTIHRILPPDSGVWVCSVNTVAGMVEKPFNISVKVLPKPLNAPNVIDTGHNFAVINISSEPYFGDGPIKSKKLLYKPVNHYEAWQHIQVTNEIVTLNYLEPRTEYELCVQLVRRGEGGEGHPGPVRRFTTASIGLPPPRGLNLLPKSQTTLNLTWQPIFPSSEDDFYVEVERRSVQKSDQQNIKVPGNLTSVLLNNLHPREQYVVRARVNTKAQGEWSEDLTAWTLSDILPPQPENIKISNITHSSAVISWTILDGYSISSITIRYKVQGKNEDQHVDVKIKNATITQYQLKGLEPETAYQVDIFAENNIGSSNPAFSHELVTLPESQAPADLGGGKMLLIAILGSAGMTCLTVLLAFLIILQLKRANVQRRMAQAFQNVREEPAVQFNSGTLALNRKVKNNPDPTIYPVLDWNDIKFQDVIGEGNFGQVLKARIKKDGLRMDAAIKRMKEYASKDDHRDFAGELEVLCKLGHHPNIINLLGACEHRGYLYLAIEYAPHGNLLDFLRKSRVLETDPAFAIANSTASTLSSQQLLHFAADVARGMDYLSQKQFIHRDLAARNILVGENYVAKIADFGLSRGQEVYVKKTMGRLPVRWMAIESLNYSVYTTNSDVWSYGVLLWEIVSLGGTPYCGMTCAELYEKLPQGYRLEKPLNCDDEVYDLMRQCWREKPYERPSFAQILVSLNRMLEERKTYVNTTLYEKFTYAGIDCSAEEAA
In short: as §1

TNK2 = TNK2 (Homo sapiens, UniProt Q07912); details: TNK2, 1 μM; read-out: % control
TNK2, sequence (Q07912 whole entry): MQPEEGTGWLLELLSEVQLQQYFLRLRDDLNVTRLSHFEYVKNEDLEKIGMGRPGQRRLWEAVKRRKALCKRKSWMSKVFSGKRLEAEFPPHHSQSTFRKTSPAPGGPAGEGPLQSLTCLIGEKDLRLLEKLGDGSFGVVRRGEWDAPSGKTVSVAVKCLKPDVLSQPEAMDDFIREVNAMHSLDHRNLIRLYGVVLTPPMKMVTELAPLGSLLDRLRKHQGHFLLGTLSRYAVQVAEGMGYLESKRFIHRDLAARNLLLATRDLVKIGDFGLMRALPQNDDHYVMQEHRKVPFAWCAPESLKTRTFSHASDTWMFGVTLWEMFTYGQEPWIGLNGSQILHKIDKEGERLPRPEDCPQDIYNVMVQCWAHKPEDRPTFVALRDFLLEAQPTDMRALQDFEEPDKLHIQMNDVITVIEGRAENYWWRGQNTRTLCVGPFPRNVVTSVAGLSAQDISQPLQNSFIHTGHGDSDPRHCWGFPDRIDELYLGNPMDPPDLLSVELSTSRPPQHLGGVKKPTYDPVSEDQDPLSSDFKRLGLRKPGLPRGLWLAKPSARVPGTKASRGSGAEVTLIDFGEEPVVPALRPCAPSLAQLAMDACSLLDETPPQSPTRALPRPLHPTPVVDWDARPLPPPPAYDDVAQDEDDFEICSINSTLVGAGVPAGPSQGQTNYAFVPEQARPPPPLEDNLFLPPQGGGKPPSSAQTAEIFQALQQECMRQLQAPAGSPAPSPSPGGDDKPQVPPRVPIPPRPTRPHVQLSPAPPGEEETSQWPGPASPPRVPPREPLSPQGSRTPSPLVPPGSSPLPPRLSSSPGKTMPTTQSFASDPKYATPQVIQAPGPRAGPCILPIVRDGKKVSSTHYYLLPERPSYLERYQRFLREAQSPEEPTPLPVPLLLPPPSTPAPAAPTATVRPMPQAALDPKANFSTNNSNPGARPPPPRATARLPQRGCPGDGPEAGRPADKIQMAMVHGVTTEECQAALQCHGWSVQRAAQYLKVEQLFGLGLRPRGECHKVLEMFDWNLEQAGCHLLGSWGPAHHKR
In short: as §1

p38-alpha = p38-alpha (Homo sapiens, UniProt Q16539); details: read-out: % control
p38-alpha, sequence (Q16539 whole entry): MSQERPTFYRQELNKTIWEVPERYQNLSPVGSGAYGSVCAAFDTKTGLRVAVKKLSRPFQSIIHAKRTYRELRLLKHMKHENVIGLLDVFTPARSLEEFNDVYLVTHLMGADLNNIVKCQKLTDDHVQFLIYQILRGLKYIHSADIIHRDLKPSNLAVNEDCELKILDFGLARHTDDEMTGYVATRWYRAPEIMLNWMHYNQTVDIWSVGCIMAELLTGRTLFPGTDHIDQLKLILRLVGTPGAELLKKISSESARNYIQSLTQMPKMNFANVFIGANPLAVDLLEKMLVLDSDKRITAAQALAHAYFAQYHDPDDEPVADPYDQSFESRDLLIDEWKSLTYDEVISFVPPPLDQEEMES
In short: as §1

Structure (SMILES) | remaining binding at 1 µM [1] | remaining binding at 1 µM [2] | remaining binding at 1 µM (CDC2L5) | remaining binding at 1 µM (CSNK1E) | remaining binding at 1 µM (DCAMKL1) | remaining binding at 1 µM (EGFR(L861Q)) | remaining binding at 1 µM (FLT3) | remaining binding at 1 µM (JNK2) | remaining binding at 1 µM (MARK3) | remaining binding at 1 µM (NIM1) | remaining binding at 1 µM (PKN2) | remaining binding at 1 µM (TIE2) | remaining binding at 1 µM (TNK2) | remaining binding at 1 µM (p38-alpha)
CNc1c(-c2cnn([C@H]3CCN(C(C)=O)C[C@@H]3F)c2)cnc2[nH]cc(Cl)c12 [Compound 77, 1-((3S,4S)-4-(4-(3-chloro-4-(methylamino)-1H-pyrrolo[2,3-b]pyridin-5-yl)-1H-pyrazol-1-yl)-3-fluoropiperidin-1-yl)ethan-1-one] | 73% | 36% | 100% | 68% | 79% | 96% | 3.3% | 17% | 82% | 69% | 51% | 80% | 100% | 100%
CNc1c(-c2ccc(C(=O)N3CCC(N4CCOCC4)CC3)cc2)cnc2[nH]cc(Cl)c12 [Compound 96, (4-(3-chloro-4-(methylamino)-1H-pyrrolo[2,3-b]pyridin-5-yl)phenyl)(4-morpholinopiperidin-1-yl)methanone] | 92% | 76% | 100% | 17% | 77% | 90% | 6.7% | 0.85% | 84% | 50% | 87% | 81% | 94% | 92%
O=C(c1ccc(-c2cnc3[nH]cc(Cl)c3c2NC2CCCC2)cc1)N1CCC(N2CCOCC2)CC1 [Compound 101, (4-(3-chloro-4-(cyclopentylamino)-1H-pyrrolo[2,3-b]pyridin-5-yl)phenyl)(4-morpholinopiperidin-1-yl)methanone] | 100% | 100% | 2.1% | 81% | 90% | 89% | 4.9% | 8.8% | 89% | 99% | 75% | 97% | 98% | 100%
